Measured values from PMC12358994, “Proline Homologation in Melanostatin Neuropeptide: Discovery of Potent Modulators of the Dopamine D2 Receptors” (ACS Medicinal Chemistry Letters, 2025).
Peptide text beside a SMILES is read from it.

Columns and labels:
[1] = test system: differentiated SH-SY5Y neuronal cells; experiment: MTT reduction assay in differentiated SH-SY5Y cells; assay type: cell-based, human; conditions: 125 μM, 48 h; positive control for cytotoxicity
Protocol: (§1) Following a protocol established in our research group, , these compounds were tested at 100 μM concentration using the 3-(4,5-dimethylthiazol-2-yl)-2,5-diphenyltetrazolium bromide (MTT) reduction and the neutral red (NR) uptake assays.
(§2) 5 Neurotoxic effects of the synthesized compounds were examined via MTT reduction (A) and NR uptake (B) assays in differentiated SH-SY5Y neuronal cells. Cells were incubated for 48 h with 1, 9, MIF-1 (100 μM), or 6-OHDA (125 μM). Compounds were solubilized in phosphate-buffered saline (PBS) solution. Results are reported as a percentage relative to the control (PBS) and shown as mean ± standard deviation. Data were collected from 16 to 36 wells across 9 independent experiments for the MTT reduction assay and from 12 wells and 3 independent experiments for the NR uptake assay. Statistical analyses were performed using the analysis of variance (ANOVA) test, followed by Tukey’s post hoc test (*p < 0.05 and ****p < 0.0001 vs control).
(§3) 4. Cytotoxicity in Human Neuronal SH-SY5Y Cells. The SH-SY5Y cell line was sourced from Sigma-Aldrich (Taufkirchen, Germany). DMEM medium [DMEM (1x) + GlutaMAX], DMEM/F-12, and Fetal Bovine Serum (FBS) were purchased from Gibco and Alfagene (Carcavelos, Portugal). Penicillin and Streptomycin were obtained from Biotecnómica (Porto, Portugal). Phosphate-buffered solution (PBS) without calcium and magnesium was acquired from Biochrom (Berlin, Germany). Trypsin/EDTA solution, 0.4% (w/v) trypan blue solution, NR solution, RA, and TPA were also obtained from Sigma-Aldrich (Germany). DMSO and HBSS (Hanks' Balanced Salt Solution) were purchased from Merck (Germany). MTT was sourced from Alfa Aesar (Kandel, Germany). 6-OHDA hydrobromide (CAS: 636-00-0) was acquired from Sigma-Aldrich (Germany).
(§4) Cell counts were performed on a Neubauer chamber using a Nikon Eclipse TS100 microscope from Nikon (Japan), and plate readings (MTT reduction and NR uptake assays) were conducted on a BioTek Synergy HT plate reader from BioTek (USA). Tissue culture flasks (25 cm²) and tissue culture 48 -well plates were purchased from TPP (Switzerland), while 5-, 10-, and 25-mL serological pipettes were obtained from Nerbe-Plus (Germany). Throughout all procedures, SH-SY5Y cells were maintained in a 5% CO2 incubator from Heraeus (Germany) at 37 °C. Cells were trypsinized after reaching confluence before experiments or for general culture maintenance.
(§5) Human neuroblastoma SH-SY5Y cells were maintained in complete DMEM medium supplemented with 10% (v/v) FBS and 1% (v/v) antibiotics (100 units/mL penicillin and 100 μg/mL streptomycin), at 37 °C in a 5% CO2 incubator throughout all procedures. […] After trypsin inactivation, cells were counted using a 0.4% (w/v) trypan blue solution and an optical microscope. […]

[2] = test system: differentiated SH-SY5Y neuronal cells; experiment: Neutral red (NR) uptake assay in differentiated SH-SY5Y cells; assay type: cell-based, human; conditions: 125 μM, 48 h; positive control for cytotoxicity
Protocol: as §1, §2, §3, §4, §5

[3] = MTT reduction assay in differentiated SH-SY5Y cells; assay type: cell-based, human; conditions: human
Protocol: as §1, §2, §3, §4, §5

[4] = test system: dopamine receptors isolated from bovine caudate tissue; parameters: method as in Johnson and co-workers; conditions: 100 nM; ref Johnson and co-workers; cited from earlier work
[5] = Neutral red (NR) uptake assay in differentiated SH-SY5Y cells; assay type: cell-based, human; conditions: human
Protocol: as §1, §2, §3, §4, §5

human D2R = human D2R (Homo sapiens, UniProt P14416); experiment: D2R functional assay in the absence of dopamine (intrinsic agonist activity); assay type: cell-based
Protocol: To exclude intrinsic agonist activity and validate the PAM mechanism of the best-performing MIF-1 derivatives 1 and 9, the same experiments were conducted in the absence of dopamine and compared to the concentration–response curve of dopamine alone (Figure ).
3 Concentration–response for compounds 1 and 9 obtained at human D2R in the absence of dopamine (DA), with the DA concentration–response curve included for reference. Data are presented as the mean ± standard deviation from three independent experiments.

Chain of human D2R (P14416 whole entry): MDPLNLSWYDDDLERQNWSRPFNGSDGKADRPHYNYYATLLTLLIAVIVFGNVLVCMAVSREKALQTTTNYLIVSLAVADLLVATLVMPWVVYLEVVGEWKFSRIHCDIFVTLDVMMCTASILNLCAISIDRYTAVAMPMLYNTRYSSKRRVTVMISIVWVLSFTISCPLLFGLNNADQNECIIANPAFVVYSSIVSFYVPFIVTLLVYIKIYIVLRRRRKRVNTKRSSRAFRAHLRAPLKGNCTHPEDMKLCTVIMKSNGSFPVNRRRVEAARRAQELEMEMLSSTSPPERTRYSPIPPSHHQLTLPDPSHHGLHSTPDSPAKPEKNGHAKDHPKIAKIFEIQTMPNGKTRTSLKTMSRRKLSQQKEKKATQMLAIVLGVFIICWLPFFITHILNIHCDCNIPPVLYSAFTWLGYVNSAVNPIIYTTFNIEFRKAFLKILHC

| intrinsic agonistic effect (human D2R) | Structure (SMILES) | MTT reduction, percentage relative to control (PBS) [1] [%] | NR uptake, percentage relative to control (PBS) [2] [%] | viability at 48 h, 100 µM [3] [%] | enhancement of specific binding of [3H]-ADTN (maximal effect) [4] [%] | viability at 48 h, 100 µM [5] [%] |
| --- | --- | --- | --- | --- | --- | --- |
|  | NCCc1cc(O)c(O)cc1O [6-OHDA, 6-hydroxydopamine, reference compound] | 45.64 ± 11.85 | 57.26 ± 7.41 |  |  |  |
|  | CC(C)C[C@H](NC(=O)[C@@H]1CCCN1)C(=O)NCC(N)=O [MIF-1, L-prolyl-L-leucylglycinamide, reference compound] (H-Pro-Leu-Gly-NH2) |  |  | 105 ± 6 | 46.2 ± 13.4 | 97.8 ± 8.56 |
| no intrinsic agonistic effect | CC(C)C[C@H](NC(=O)[C@@H]1CCCCN1)C(=O)NCC(N)=O [compound 1, L-pipecolyl-L-leucylglycinamide] (HELM PEPTIDE1{[O=C([C@@H]1CCCCN1)[*:2]].L.G.[am]}$$$$V2.0) |  |  | 105 ± 7.1 | 58.7 ± 9.3 | 102 ± 3.48 |
| no intrinsic agonistic effect | COC(=O)CNC(=O)[C@H](CC(C)C)NC(=O)[C@@H]1CCCCN1 [compound 9, methyl L-pipecolyl-L-leucylglycinate] (HELM PEPTIDE1{[O=C([C@@H]1CCCCN1)[*:2]].L.G.[CO[*:1]]}$$$$V2.0) |  |  | 105 ± 6.8 |  | 100 ± 2.09 |
